Marks after values point to notes of the source that are not given here.

The test system of data set [1] is human VEGF. In words: Binding affinity to VEGF.
Data set [2] has as its target human DLL4 (Homo sapiens, UniProt Q9NR61). Nature of the data set: Binding affinity to DLL4.
Data set [3] has as its system DLL4-mediated Notch-1 activation. In words: Inhibition of DLL4-mediated Notch-1 activation. Format: cell-based.
The subject of data set [4] is human peripheral blood cells (PBC) from normal donors. Nature of the data set: Cytokine release by human peripheral blood cells. It is filed as cell-based. To be noted: within expected range of negative control IgG1 antibodies.
Data set [5] has as its system HCT-116 human colon xenograft tumors. In words: HCT-116 colon xenograft model. Format: in vivo, female SCID mice. As for the experimental part: The effect of anti-DLL4-VEGF DVD-Igs (ABT-165) in combination with chemotherapy on tumor growth was evaluated on HCT-116 human colon xenograft tumors in female SCID mice. Briefly, 5×10^6 cells were inoculated subcutaneously into the right hind flank. Tumors were allowed to establish for 14 days, at which point tumor volume was determined using electronic caliper measurements using the formula: L×W^2/2. Mice were allocated into treatment groups (n=9 per group) so that each cohort had equivalent mean tumor volume of 192 mm^3 prior to initiation of therapy. Animals were dosed with 5-fluorouracil (5-FU), folinic acid (leucovorin), irinotecan, anti-VEGF mAb (AB014), and/or anti-DLL4-VEGF DVD-Ig (ABT-165) at the dose and schedule in Table 4. An anti-tetanus toxoid mAb (AB095) was used as a non-targeting isotype control. Tumor volume was measured twice a week for the duration of the experiment.

Data set [6] addresses FcRn (Homo sapiens, UniProt P55899). In words: Binding to FcRn. To be noted: compared with human IgG1.

human VEGF, sequence (P15692 207-320 limits assumed): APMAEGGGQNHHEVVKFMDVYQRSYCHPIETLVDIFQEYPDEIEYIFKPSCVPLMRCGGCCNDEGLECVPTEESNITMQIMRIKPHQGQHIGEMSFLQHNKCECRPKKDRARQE
FcRn, sequence (P55899 24-297 limits assumed, species assumed): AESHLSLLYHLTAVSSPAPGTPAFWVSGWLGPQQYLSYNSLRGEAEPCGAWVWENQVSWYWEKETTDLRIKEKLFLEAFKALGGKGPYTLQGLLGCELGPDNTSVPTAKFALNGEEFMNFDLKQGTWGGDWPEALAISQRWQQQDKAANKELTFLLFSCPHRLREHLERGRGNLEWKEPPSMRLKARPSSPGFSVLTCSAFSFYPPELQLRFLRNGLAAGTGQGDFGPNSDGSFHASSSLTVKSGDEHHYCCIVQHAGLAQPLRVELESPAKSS
FcRn, sequence (P61769 21-119 partner, species assumed): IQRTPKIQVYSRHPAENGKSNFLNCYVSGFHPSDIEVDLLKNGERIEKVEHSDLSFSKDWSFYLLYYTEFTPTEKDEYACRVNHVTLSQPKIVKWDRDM

Turning to “ABT-165: dual-variable domain humanized immunoglobulin with dual specificity for DLL4 and VEGF; light chain SEQ ID No. 15, heavy chain SEQ ID No. 16”, the “affinity to VEGF” value in data set [1] is “nanomolar affinities”. In addition, the “affinity to DLL4” value in data set [2] was “nanomolar affinities”. The “inhibition of DLL4-mediated Notch-1 activation” value in data set [3] was “potent inhibition”. In data set [4], the “ability to stimulate cytokine release” value is “low ability”. Further, the “efficacy compared to anti-VEGF monoclonal antibody (alone or each with FOLFIRI)” value in data set [5] (colon cancer xenograft model, FIG. 1) was “superior efficacy”. The “% TGI (percent tumor growth inhibition = 100 − (T/C × 100))” value in data set [5] (day 26 post size match, mean tumor volume vs treatment control group, dose and regimen as in Table 4, n=9 per group) is 67* %. Moreover, in data set [6], the “binding to FcRn” value is “pH-dependent binding to FcRn within the expected range of human IgG1”.

The values are drawn from patent publication US20220211846A1, “ABT-165 IN COMBINATION WITH FOLINIC ACID, 5-FLUOROURACIL, AND IRINOTECAN FOR THE TREATMENT OF CANCERS” (AbbVie Biotherapeutics Inc., priority 2017, published 2022).
